From patent US5861300A, “Antiviral transgenic plants, vectors, cells and methods” (The Cleveland Clinic Foundation, priority 1995, dated 1999) come the findings set out here.

The subject of experiment [1] is human 2-5A-dependent RNase (recombinant and HeLa cell). Put plainly: uv covalent crosslinking of 2-5A probe with unlabeled oligonucleotide competitors. The format is binding. The following applies: competitor 100 nM; recombinant human enzyme in wheat germ extract; same pattern in HeLa cell extract. The protocol:
(§1) The synthesis of the 2-5A probe, p(A2'p)2 (br^8 A2'p)2 A[32P]Cp, and its crosslinking to 2-5A-dependent RNase is performed exactly as described. See Nolan-Sorden, N. L. et al., Anal. Biochem., 184:298-304 (1990). Briefly, the 2-5A probe, about 0.7 to 2.5 nM at […], is incubated for about one hour on ice with cell extract prepared as described, Silverman, R. H. and Krause, D., I.R.L. Press, Oxford, England, pp. 149-193 (1987), in the absence or presence of unlabeled oligonucleotide competitors. Covalent crosslinking is done under a uv lamp (308 nm) for one hour on ice and the proteins are separated on SDS/10% polyacrylamide gels. Filter assays for 2-5A binding activity using the 2-5A probe for about one hour on ice, as described in Knight, M. et al., Nature, 288:189-192 (1980).

The test system of experiment [2] is murine 2-5A-dependent RNase (truncated recombinant clone ZB1 and naturally occurring L929 cell enzyme). The experiment is described as above. The format is binding. The following applies: for competition with 2-5A probe for binding to protein: competitor 100 nM, recombinant 74 kDa protein in wheat germ extract, similar profile with L929 cell enzyme; for concentration required to prevent 2-5A probe binding: both proteins (recombinant ZB1 and naturally occurring). The protocol: as §1

For experiment [3], the system named is 2-5A probe. Briefly: 2-5A binding activity of nested 3'-deletion clones (filter binding and uv crosslinking). The conditions noted are these: expressed in wheat germ extract. The protocol:
The set of nested 3'-deletions of the truncated murine 2-5A-dependent RNase cDNA, ZB1, is generated with exonuclease III/S1 nuclease digestion followed by filling-in with Klenow DNA Polymerase using the "Erase-A-Base"system (Promega).
as §1

For experiment [4], the system named is 32P-2-5A probe. Briefly: 2-5A binding of lysine to asparagine mutants, uv crosslinking, phosphorimager analysis. The conditions noted are these: wheat germ translation products; phosphorimager analysis of dried gel.
Experimental: Briefly, the 2-5A probe, about 0.7 to 2.5 nM at 3,0009 Ci/mmole, is incubated for about one hour on ice with cell extract prepared as described, Silverman, R. H. and Krause, D., I.R.L. Press, Oxford, England, pp. 149-193 (1987), in the absence or presence of unlabeled oligonucleotide competitors. Covalent crosslinking is done under a uv lamp (308 nm) for one hour on ice and the proteins are separated on SDS/10% polyacrylamide gels.
The lysines in the truncated murine 2-5A-dependent RNase, clone ZB1, at positions 240 and 274 are mutated, individually and together, to asparagine residues.
In experiment [5] the test system is poly(C). Briefly: ribonuclease assay with 2-5A-cellulose. The format is biochemical. The following applies: after one hour of incubation; enzyme bound to 2-5A-cellulose. The protocol: (§2) Transcription of plasmids with phage RNA polymerases is in the presence of mGppppG as described (Promega) except that reaction mixtures are supplemented with 15% dimethyl sulfoxide and incubations are at about 37° C. for about 90 minutes. RNA is purified through Sephadex G50 spun-columns and ethanol precipitated prior to translation. Protein synthesis was performed, as described (Promega), at about 30° C. for about one hour in micrococcal nuclease-pretreated rabbit reticulocyte lysate or in an extract of wheat germ at about room temperature for about one hour and then at about […] for about 12 hours. Translation reactions contain about 50 μM zinc sulfate. […]
(§3) The ribonuclease assay with 2-5A-cellulose is performed, as described by Silverman, R. H., Anal. Biochem., 144:450-460 (1985). […] The matrix is then incubated with poly(U)-[^32 P]Cp or poly(C)-[^32 P]Cp (both at about 16 μM in nucleotide equivalents) at about 30° C. and the levels of acid-precipitable radioactive RNA are determined by filtration on glass-fiber filters.

The subject of experiment [6] is poly(U). Put plainly: ribonuclease assay with 2-5A-cellulose. The format is biochemical. The following applies: enzyme made in reticulocyte lysate, bound to 2-5A-cellulose, 30° C. The protocol: as §2, §3

In the case of (A2'p)2 A, the results for the “competition with 2-5A probe for binding to protein” value in experiment [1] and in experiment [2] were “not prevented” and “fails to interfere with binding”, respectively. In addition, the “fold higher concentration than trimer 2-5A required to prevent probe binding” value in experiment [2] (both proteins) was 500 fold. In experiment [2] (probe 2.4 nM), the “concentration required to prevent 2-5A probe binding” value (from here on “concentration required”) worked out at 10 µM.

In the case of p3 (A2'p)2 A, the results for the “competition with 2-5A probe for binding to protein” value in experiment [1] and in experiment [2] were “effectively competes” and “completely prevents probe binding”, respectively. Besides, the “concentration that prevents the 2-5A probe from binding” value in experiment [2] (probe 2.4 nM, either protein (recombinant ZB1 and naturally occurring)) was “about 20 nM”.

Turning to p3 A2'pA, the “concentration required” value in experiment [2] (probe 2.4 nM) is > 10 µM.

On to p3 I2'pA2'pA, for which the “concentration required” value in experiment [2] (probe 2.4 nM) is reported as “about 1.0 μM”.

B1: ZB11: murine 2-5A-dependent RNase deletion mutant, amino acid residues 1 to 342 (protein, UniProt Q05921 1-342, looked up, fragment)
chain: METPDYNTPQGGTPSAGSQRTVVEDDSSLIKAVQKGDVVRVQQLLEKGADANACEDTWGWTPLHNAVQAGRVDIVNLLLSHGADPHRRKKNGATPFIIAGIQGDVKLLEILLSCGADVNECDENGFTAFMEAAERGNAEALRFLFAKGANVNLRRQTTKDKRRLKQGGATALMSAAEKGHLEVLRILLNDMKAEVDARDNMGRNALIRTLLNWDCENVEEITSILIQHGADVNVRGERGKTPLIAAVERKHTGLVQMLLSREGINIDARDNEGKTALLIAVDKQLKEIVQLLLEKGADKCDDLVWIARRNHDYHLVKLLLPYVANPDTDPPAGDWSPHSSRW
B1: the “loss of 2-5A binding activity as compared to clone ZB1” value in experiment [3] is “about 26%”.

B2: ZB1(Lys^240,274 -)Asn): double mutant of clone ZB1, lysines 240 and 274 replaced by asparagine (protein, UniProt Q05921 1-735, looked up, variant K240N K274N)
2-5A-dependent ribonuclease: METPDYNTPQGGTPSAGSQRTVVEDDSSLIKAVQKGDVVRVQQLLEKGADANACEDTWGWTPLHNAVQAGRVDIVNLLLSHGADPHRRKKNGATPFIIAGIQGDVKLLEILLSCGADVNECDENGFTAFMEAAERGNAEALRFLFAKGANVNLRRQTTKDKRRLKQGGATALMSAAEKGHLEVLRILLNDMKAEVDARDNMGRNALIRTLLNWDCENVEEITSILIQHGADVNVRGERGNTPLIAAVERKHTGLVQMLLSREGINIDARDNEGNTALLIAVDKQLKEIVQLLLEKGADKCDDLVWIARRNHDYHLVKLLLPYVANPDTDPPAGDWSPHSSRWGTALKSLHSMTRPMIGKLKIFIHDDYKIAGTSEGAVYLGIYDNREVAVKVFRENSPRGCKEVSCLRDCGDHSNLVAFYGREDDKGCLYVCVSLCEWTLEEFLRLPREEPVENGEDKFAHSILLSIFEGVQKLHLHGYSHQDLQPQNILIDSKKAVRLADFDQSIRWMGESQMVRRDLEDLGRLVLYVVMKGEIPFETLKTQNDEVLLTMSPDEETKDLIHCLFSPGENVKNCLVDLLGHPFFWTWENRYRTLRNVGNESDIKVRKCKSDLLRLLQHQTLEPPRSFDQWTSKIDKNVMDEMNHFYEKRKKNPYQDTVGDLLKFIRNIGEHINEEKKRGMKEILGDPSRYFQETFPDLVIYIYKKLKETEYRKHFPQPPPRLSVPEAVGPGGIQS
For the molecule B2, the “2-5A binding activity relative to clone ZB1 (control)” value in experiment [4] was determined as 12.2%.

B3: ZB15: murine 2-5A-dependent RNase deletion mutant, amino acids 1 to 218, both P-loop motifs deleted (protein, UniProt Q05921 1-218, looked up, fragment)
chain: METPDYNTPQGGTPSAGSQRTVVEDDSSLIKAVQKGDVVRVQQLLEKGADANACEDTWGWTPLHNAVQAGRVDIVNLLLSHGADPHRRKKNGATPFIIAGIQGDVKLLEILLSCGADVNECDENGFTAFMEAAERGNAEALRFLFAKGANVNLRRQTTKDKRRLKQGGATALMSAAEKGHLEVLRILLNDMKAEVDARDNMGRNALIRTLLNWDCENV
On to B3, for which the “2-5A binding activity relative to clone ZB1” value in experiment [3] is “completely lacking in 2-5A binding activity”.

B4: ZB13: murine 2-5A-dependent RNase deletion mutant, amino acids 1 to 294 (protein, UniProt Q05921 1-294, looked up, fragment)
chain: METPDYNTPQGGTPSAGSQRTVVEDDSSLIKAVQKGDVVRVQQLLEKGADANACEDTWGWTPLHNAVQAGRVDIVNLLLSHGADPHRRKKNGATPFIIAGIQGDVKLLEILLSCGADVNECDENGFTAFMEAAERGNAEALRFLFAKGANVNLRRQTTKDKRRLKQGGATALMSAAEKGHLEVLRILLNDMKAEVDARDNMGRNALIRTLLNWDCENVEEITSILIQHGADVNVRGERGKTPLIAAVERKHTGLVQMLLSREGINIDARDNEGKTALLIAVDKQLKEIVQLLLE
As for B4, in experiment [3], the “2-5A binding activity relative to clone ZB1” value is recorded as “about 38.3%”.

B5: ZB14: murine 2-5A-dependent RNase deletion mutant, amino acids 1 to 265, one P-loop motif deleted (protein, UniProt Q05921 1-265, looked up, fragment)
chain: METPDYNTPQGGTPSAGSQRTVVEDDSSLIKAVQKGDVVRVQQLLEKGADANACEDTWGWTPLHNAVQAGRVDIVNLLLSHGADPHRRKKNGATPFIIAGIQGDVKLLEILLSCGADVNECDENGFTAFMEAAERGNAEALRFLFAKGANVNLRRQTTKDKRRLKQGGATALMSAAEKGHLEVLRILLNDMKAEVDARDNMGRNALIRTLLNWDCENVEEITSILIQHGADVNVRGERGKTPLIAAVERKHTGLVQMLLSREGIN
B5: the “2-5A binding activity relative to clone ZB1” value in experiment [3] was found to be 1.9%.

B6: recombinant human 2-5A-dependent RNase: full-length human 2-5A-dependent RNase translated in vitro in reticulocyte lysate (protein, UniProt Q05823 1-741, looked up)
chain: MESRDHNNPQEGPTSSSGRRAAVEDNHLLIKAVQNEDVDLVQQLLEGGANVNFQEEEGGWTPLHNAVQMSREDIVELLLRHGADPVLRKKNGATPFILAAIAGSVKLLKLFLSKGADVNECDFYGFTAFMEAAVYGKVKALKFLYKRGANVNLRRKTKEDQERLRKGGATALMDAAEKGHVEVLKILLDEMGADVNACDNMGRNALIHALLSSDDSDVEAITHLLLDHGADVNVRGERGKTPLILAVEKKHLGLVQRLLEQEHIEINDTDSDGKTALLLAVELKLKKIAELLCKRGASTDCGDLVMTARRNYDHSLVKVLLSHGAKEDFHPPAEDWKPQSSHWGAALKDLHRIYRPMIGKLKFFIDEKYKIADTSEGGIYLGFYEKQEVAVKTFCEGSPRAQREVSCLQSSRENSHLVTFYGSESHRGHLFVCVTLCEQTLEACLDVHRGEDVENEEDEFARNVLSSIFKAVQELHLSCGYTHQDLQPQNILIDSKKAAHLADFDKSIKWAGDPQEVKRDLEDLGRLVLYVVKKGSISFEDLKAQSNEEVVQLSPDEETKDLIHRLFHPGEHVRDCLSDLLGHPFFWTWESRYRTLRNVGNESDIKTRKSESEILRLLQPGPSEHSKSFDKWTTKINECVMKKMNKFYEKRGNFYQNTVGDLLKFIRNLGEHIDEEKHKKMKLKIGDPSLYFQKTFPDLVIYVYTKLQNTEYRKHFPQTHSPNKPQCDGAGGASGLASPGC
modifications: full-length
notes: full-length human 2-5A-dependent RNase translated in vitro in reticulocyte lysate
As to B6, the “poly(C) degraded” value in experiment [5] is reported as 20%. Moreover, the “half-life of poly(U) degradation” value in experiment [6] was “about 10 minutes”.
